Test results taken from patent US10633419B2, “Immunomodulators” (BRISTOL-MYERS SQUIBB COMPANY, priority 2014, dated 2020).
Starred links: 1 amine or outer side, 2 acyl side, 3 side chain; linkers in the order of their positions; H or OH if unused. Positions of bridges follow the written chain, without caps; N, C: chain ends. Non-standard residues stand in square brackets, D forms with d. Residues, ends and D or L forms follow the SMILES beside them. Groups on a side chain read outwards from the residue. *: point of attachment. X18 = O=C(O)CCCCCCCCCCCCCCC(=O)N[C@@H](CC(=O)NCCCOCCOCCOCCCN*)C(=O)O; Ala(1-CH2COOH-inden-3-yl) = N[C@@H](CC1=CC(CC(=O)O)c2ccccc21)C(=O)O; Trp(1-CH2COOH) = N[C@@H](Cc1cn(CC(=O)O)c2ccccc12)C(=O)O; X9 = O=C(O)CCCCCCCCCCCCCCCCC(=O)N[C@@H](CCN*)C(=O)O; C18 diacid = O=C(O)CCCCCCCCCCCCCCCCC(=O)*; γGlu = O=C(O)[C@H](CCC(=O)[*:2])N[*:1]; NH(CH2)12COOH = O=C(O)CCCCCCCCCCCCN*; Gly(octyl) = CCCCCCCC[C@H](N)C(=O)O; cisHyp = O=C(O)[C@@H]1C[C@H](O)CN1; Hyp = O=C(O)[C@@H]1C[C@@H](O)CN1; NHhexadecyl = CCCCCCCCCCCCCCCCN*; dHyp = O=C(O)[C@H]1C[C@H](O)CN1; NMeNle = CCCC[C@H](NC)C(=O)O; Pip = O=C(O)[C@@H]1CCCCN1; NMeA = CN[C@@H](C)C(=O)O; Pra = C#CC[C@H](N)C(=O)O; Aun = NCCCCCCCCCCC(=O)O; Dab = NCC[C@H](N)C(=O)O; Dap = NC[C@H](N)C(=O)O

target: T1, PD-L1 (Homo sapiens, UniProt Q9NZQ7); experiment: PD-1/PD-L1 Homogenous Time-Resolved Fluorescence (HTRF) binding assay (PD-1-Ig/PD-L1-His); conditions: inhibition of PD-1-Ig binding to PD-L1-TVMV-His; value given as number; read-out: HTRF IC50
T1 construct: hPDL1(19-239)-TVMV-His; made in house; host or cells: HEK293T
T1 sequence (Q9NZQ7 with tags, fused parts or gaps): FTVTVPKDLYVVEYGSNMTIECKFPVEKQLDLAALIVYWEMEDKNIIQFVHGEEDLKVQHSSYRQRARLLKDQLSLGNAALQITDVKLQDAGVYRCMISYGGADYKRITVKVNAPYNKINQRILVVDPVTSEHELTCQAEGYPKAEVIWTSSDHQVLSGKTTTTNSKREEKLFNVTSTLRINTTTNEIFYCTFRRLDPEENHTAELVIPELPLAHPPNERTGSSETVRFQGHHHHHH
In short: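 Inhibitors pre-incubated 15 min with PD-L1-His (10 nM final), then PD-1-Ig (20 nM final) added for 15 min in dPBS/0.1% BSA/0.05% Tween-20. Eu-cryptate anti-Ig (1 nM) and APC anti-His (20 nM) added, 30 min equilibration, 665/620 nm HTRF ratio read.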

IC50 [nM] | SMILES
13 | CCCCCCCC[C@H](NC(=O)CCCCCCCCCCNC(=O)[C@@H]1CSCC(=O)N[C@@H](Cc2ccc(O)cc2)C(=O)N(C)[C@@H](C)C(=O)N[C@@H](CC(N)=O)C(=O)N2CCC[C@H]2C(=O)N[C@@H](CN)C(=O)N[C@@H](CC(C)C)C(=O)N2C[C@H](O)C[C@H]2C(=O)N[C@@H](Cc2c[nH]c3ccccc23)C(=O)N[C@@H](CCN)C(=O)N[C@@H](Cc2cn(CC(=O)O)c3ccccc23)C(=O)N(C)[C@@H](CCCC)C(=O)N(C)[C@@H](CCCC)C(=O)N[C@@H](CC(C)C)C(=O)N1)C(=O)O [Example 11102] ({CH2CO}-Y[NMeA]NP[Dap]L[Hyp]W[Dab][Trp(1-CH2COOH)][NMeNle][NMeNle]LC[Aun][Gly(octyl)]-OH; thioether N-14)

same assay, conditions: inhibition of PD-1-Ig binding to PD-L1-TVMV-His; value given as range class; read-out: HTRF IC50

SMILES | IC50 [nM]
CCCCCCCCCCCCCCCCNC(=O)[C@H](CC(=O)O)NC(=O)CNC(=O)CNC(=O)CNC(=O)[C@@H]1CSCC(=O)N[C@@H](Cc2ccc(O)cc2)C(=O)N(C)[C@@H](C)C(=O)N[C@@H](CC(=O)O)C(=O)N2CCC[C@H]2C(=O)N[C@@H](Cc2cnc[nH]2)C(=O)N[C@@H](CC(C)C)C(=O)N2C[C@H](O)C[C@H]2C(=O)N[C@@H](Cc2c[nH]c3ccccc23)C(=O)N[C@@H](CO)C(=O)N[C@@H](Cc2c[nH]c3ccccc23)C(=O)N(C)[C@@H](CCCC)C(=O)N(C)[C@@H](CCCC)C(=O)N[C@@H](CCCNC(=N)N)C(=O)N1 [Example 11120] ({CH2CO}-Y[NMeA]DPHL[Hyp]WSW[NMeNle][NMeNle]RCGGGD-NHhexadecyl; thioether N-14) | 100 to 1600
C#CC[C@H](NC(=O)[C@@H]1CSCC(=O)N[C@@H](Cc2ccc(O)cc2)C(=O)N(C)[C@@H](C)C(=O)N[C@@H](CC(N)=O)C(=O)N2CCC[C@H]2C(=O)N[C@@H](CN)C(=O)N[C@@H](CC(C)C)C(=O)N2C[C@H](O)C[C@H]2C(=O)N[C@@H](Cc2c[nH]c3ccccc23)C(=O)N[C@@H](CCN)C(=O)N[C@@H](Cc2cn(CC(=O)O)c3ccccc23)C(=O)N(C)[C@@H](CCCC)C(=O)N(C)[C@@H](CCCC)C(=O)N[C@@H](CC(=O)O)C(=O)N1)C(=O)O [INT130AH] ({CH2CO}-Y[NMeA]NP[Dap]L[Hyp]W[Dab][Trp(1-CH2COOH)][NMeNle][NMeNle]DC[Pra]-OH; thioether N-14) | 0.3 to 9.9
CCCC[C@H]1C(=O)N(C)[C@@H](CCCC)C(=O)N[C@@H](CC(C)C)C(=O)N[C@H](C(=O)NCCCCCCCCCCC(=O)NCCCCCCCCCCC(=O)NCCCCCCCCCCC(=O)O)CSCC(=O)N[C@@H](Cc2ccc(O)cc2)C(=O)N(C)[C@@H](C)C(=O)N[C@@H](CC(N)=O)C(=O)N2CCC[C@H]2C(=O)N[C@@H](CN)C(=O)N[C@@H](CCC(N)=O)C(=O)N2C[C@H](O)C[C@H]2C(=O)N[C@@H](Cc2c[nH]c3ccccc23)C(=O)N[C@@H](CO)C(=O)N[C@@H](Cc2cn(CC(=O)O)c3ccccc23)C(=O)N1C [Example 11090] ({CH2CO}-Y[NMeA]NP[Dap]Q[Hyp]WS[Trp(1-CH2COOH)][NMeNle][NMeNle]LC[Aun][Aun][Aun]-OH; thioether N-14) | 10 to 99
CCCC[C@H]1C(=O)N(C)[C@@H](CCCC)C(=O)N[C@@H](CC(C)C)C(=O)N[C@H](C(=O)NCCCCCCCCCCC(=O)O)CSCC(=O)N[C@@H](Cc2ccc(O)cc2)C(=O)N(C)[C@@H](C)C(=O)N[C@@H](CC(N)=O)C(=O)N2CCC[C@H]2C(=O)N[C@@H](Cc2cnc[nH]2)C(=O)N[C@@H](CCC(=O)O)C(=O)N2C[C@H](O)C[C@H]2C(=O)N[C@@H](Cc2c[nH]c3ccccc23)C(=O)N[C@@H](CCN)C(=O)N[C@@H](CC2=CC(CC(=O)O)c3ccccc32)C(=O)N1C (stereo partly shown) [Example 11076] ({CH2CO}-Y[NMeA]NPHE[Hyp]W[Dab][Ala(1-CH2COOH-inden-3-yl)][NMeNle][NMeNle]LC[Aun]-OH; thioether N-14) | 10 to 99
CCCC[C@H]1C(=O)N(C)[C@@H](CCCC)C(=O)N[C@@H](CC(C)C)C(=O)N[C@H](C(=O)N[C@H](CC(=O)O)C(=O)NCC(=O)NCCCCCCCCCCCCC(=O)O)CSCC(=O)N[C@@H](Cc2ccc(O)cc2)C(=O)N(C)[C@@H](C)C(=O)N[C@@H](CC(=O)O)C(=O)N2CCC[C@@H]2C(=O)N[C@@H](Cc2cnc[nH]2)C(=O)N[C@@H](CCCCN)C(=O)N2C[C@@H](O)C[C@H]2C(=O)N[C@@H](Cc2c[nH]c3ccccc23)C(=O)N[C@@H](CCCCN)C(=O)N[C@@H](Cc2cn(CC(=O)O)c3ccccc23)C(=O)N1C [Example 11211] ({CH2CO}-Y[NMeA]D[dP]HK[cisHyp]WK[Trp(1-CH2COOH)][NMeNle][NMeNle]LC[dD]G-{NH(CH2)12COOH}; thioether N-14) | 0.3 to 9.9
CCCC[C@H]1C(=O)N(C)[C@@H](CCCC)C(=O)N[C@@H](CC(C)C)C(=O)N[C@@H](C(=O)NCC(=O)N[C@@H](CC(=O)O)C(=O)NCCCOCCOCCOCCCNC(=O)C[C@H](NC(=O)CCCCCCCCCCCCCCC(=O)O)C(=O)O)CSCC(=O)N[C@@H](Cc2ccc(O)cc2)C(=O)N(C)[C@@H](C)C(=O)N[C@@H](CC(N)=O)C(=O)N2CCC[C@@H]2C(=O)N[C@@H](CN)C(=O)N[C@@H](CC(C)C)C(=O)N2C[C@@H](O)C[C@@H]2C(=O)N[C@@H](Cc2c[nH]c3ccccc23)C(=O)N[C@@H](CCN)C(=O)N[C@@H](Cc2cn(CC(=O)O)c3ccccc23)C(=O)N1C [Example 11238] ({CH2CO}-Y[NMeA]N[dP][Dap]L[dHyp]W[Dab][Trp(1-CH2COOH)][NMeNle][NMeNle]L[dC]GD-X18; thioether N-14) | 0.3 to 9.9

Further lines, results first:

IC50 [nM] | SMILES
10 to 99 | CCCC[C@H]1C(=O)N(C)[C@@H](CCCC)C(=O)N[C@@H](CC(C)C)C(=O)N[C@H](C(=O)NCC(=O)N[C@@H](CC(=O)NCC[C@H](NC(=O)CCCCCCCCCCCCCCCCC(=O)O)C(=O)O)C(=O)O)CSCC(=O)N[C@@H](Cc2ccc(O)cc2)C(=O)N2CCCC[C@H]2C(=O)N[C@@H](CC(N)=O)C(=O)N2CCC[C@H]2C(=O)N[C@@H](CN)C(=O)N[C@@H](CC(C)C)C(=O)N2C[C@H](O)C[C@H]2C(=O)N[C@@H](Cc2c[nH]c3ccccc23)C(=O)N[C@@H](CCN)C(=O)N[C@@H](Cc2cn(CC(=O)O)c3ccccc23)C(=O)N1C [Example 13144] ({CH2CO}-Y[Pip]NP[Dap]L[Hyp]W[Dab][Trp(1-CH2COOH)][NMeNle][NMeNle]LCGD(X9)-OH; thioether N-14)
0.3 to 9.9 | CCCC[C@H]1C(=O)N(C)[C@@H](CCCC)C(=O)N[C@@H](CC(C)C)C(=O)N[C@H](C(=O)NCC(=O)N[C@@H](CNC(=O)CC[C@H](NC(=O)CCCCCCCCCCCCCCCCC(=O)O)C(=O)O)C(=O)O)CSCC(=O)N[C@@H](Cc2ccc(OC)cc2)C(=O)N2CCCC[C@H]2C(=O)N[C@@H](CC(N)=O)C(=O)N2CCC[C@H]2C(=O)N[C@@H](Cc2c[nH]cn2)C(=O)N[C@@H](CCC(N)=O)C(=O)N2C[C@H](O)C[C@H]2C(=O)N[C@@H](Cc2c[nH]c3ccccc23)C(=O)N[C@@H](CCN)C(=O)N[C@@H](Cc2cn(CC(=O)O)c3ccccc23)C(=O)N1C [Example 13154] ({CH2CO}-Y(Me)[Pip]NPHQ[Hyp]W[Dab][Trp(1-CH2COOH)][NMeNle][NMeNle]LCG[Dap]([γGlu-C18 diacid])-OH; thioether N-14)
10 to 99 | CCCC[C@H]1C(=O)N(C)[C@@H](CCCC)C(=O)N[C@@H](CCC(=O)O)C(=O)N[C@H](C(=O)NCC(=O)N[C@@H](Cc2cn(CC[C@H](NC(=O)CCCCCCCCCCCCCCCCC(=O)O)C(=O)O)nn2)C(=O)O)CSCC(=O)N[C@@H](Cc2ccc(O)cc2)C(=O)N(C)[C@@H](C)C(=O)N[C@@H](CC(N)=O)C(=O)N2CCC[C@H]2C(=O)N[C@@H](CN)C(=O)N[C@@H](CC(C)C)C(=O)N2C[C@H](O)C[C@H]2C(=O)N[C@@H](Cc2c[nH]c3ccccc23)C(=O)N[C@@H](CCN)C(=O)N[C@@H](Cc2cn(CC(=O)O)c3ccccc23)C(=O)N1C [Example 13125]
